Test results reported in paper PMC8495455, “Discovery of a transdermally deliverable pentapeptide for activating AdipoR1 to promote hair growth” (EMBO Molecular Medicine, 2021).
Values joined by “and” are separate entries in the source; they are usually repeats but may differ in a detail not shown here. Equal entries are not always repeated.

Tests used:
[1] = system: matrix cells of human HF bulbs; assay: IF staining Ki-67 of ex vivo cultured HF bulb; format: cell-based; settings: for Numbers of Ki-67-positive cells normalized to DAPI-stained cells: ex vivo cultured HF bulb, individual HFs, n = 8
Source text: We next investigated whether P5 can reproduce the effects of APN on hair growth promotion ex vivo (Won et al, [2012]) using ex vivo human HF organ culture model. […] The Ki‐67‐positive cell portion of the matrix area in the P5‐treated HFs was higher than that in the vehicle‐treated group (Fig 3E).
Paraffin‐embedded mouse cutaneous back tissue was sectioned (4 μm thickness) and stained with hematoxylin and eosin. For IF staining, human ORS cells cultured in FiTC‐P5, sectioned paraffin‐embedded human HFs (7 μm thickness), and sectioned paraffin‐embedded mouse cutaneous dorsal tissue or human skin tissue (5 μm thickness) were incubated at 4°C overnight with the following primary antibodies diluted in the diluent reagent (Invitrogen): phospho‐AMPK (#2535, 1:100; Cell Signaling), Ki‐67 (#M7240, 1:200; Dako), versican (#ab177480, 1:200; Abcam), or AdipoR1 antibody (#ab126611, 1:200; Abcam). After three washes with PBS, the slides were incubated with the secondary Alexa Fluor 488‐labeled anti‐mouse or rabbit IgG antibody (#ab150077, #ab150113, 1:200; Invitrogen), or Alexa Fluor 594‐labeled anti‐rabbit IgG antibody (#a11012, 1:200; Invitrogen) at 25°C for 1 h. Nuclei were counterstained with 4′,6‐diamidino‐2‐phenylindole (DAPI; #D1306, 1:1,000; Invitrogen). Microscopic observations were performed with a Nikon Eclipse Ci‐L microscope (Nikon). IF intensity was observed and recorded with a Nikon Eclipse Ni‐E fluorescence microscope (Nikon).

PDGFA protein = assay: Growth factor protein quantitation in DP cell medium, PDGFA; format: cell-based, human; settings: for protein_PDGFA: DP cell medium
Source text: (§1) Next, we investigated the downstream effects of P5 on hair growth factor genes and proteins in DP cells. […] We tested whether P5 can also increase the mRNA levels and proteins of hair growth factors in DP cells: IGF‐1, VEGF, HGF, platelet‐derived growth factor alpha (PDGFA), and fibroblast growth factor (FGF) 7, which are known to induce or maintain the anagen phase of the hair cycle (Jindo et al, [1994]; Philpott et al, [1994]; Yano et al, [2001]; Jang, [2005]; Tomita et al, [2006]; Iino et al, [2007]).
Human DP cells were grown on a 100‐mm cell culture dish to 100% confluency. After washed by PBS three times, the cells were cultured with serum‐free DMEM and treated with P5. After 48 h, the medium was collected and filtered by a […]. The filtrate was then concentrated using a centrifugal concentrator (Vivaspin 6, 10‐kDa molecular weight cutoff, centrifuged 2,600 g at 4°C for 13 min, Sartorius Stedim Biotech). The signals of each protein in the concentrated media were detected and quantified, based on the enzyme‐linked immunosorbent assay (Human Cytokine Antibody Array C2000, RayBiotech).

[2] = system: AMPK phosphorylation through AdipoR1 in ORS cells; assay: Western blot p-AMPK in AdipoR1 siRNA-transfected ORS cells; format: cell-based, human
Source text: (§2) Following the confirmation of the molecular interaction between AdipoR1 and P5, we evaluated the activation of the intracellular signaling pathway by P5. We investigated whether APN treatment on ORS and DP cells could activate AMPK or ERK signaling pathways, which are previously known to be downstream effectors of AdipoR1 (Mao et al, [2006]; Deepa & Dong, [2009]; Shibata et al, [2012]). […] Next, for determination of whether both P5 and APN mediates the phosphorylation of AMPK through AdipoR1 in ORS and DP cells, the cells were transfected with AdipoR1 siRNA (Appendix Fig S1). […] Collectively, P5 activates AMPK signaling pathway through AdipoR1 in ORS and DP cells in vitro.
All transfections were performed using Lipofectamine 2000 following the manufacturer’s instructions (#11668019; Thermo Fisher). Human DP and ORS cells were cultured without antibiotics until reaching 50% confluency. AdipoR1 or scrambled siRNA (Bioneer) was used. The culture medium was changed 6 h after transfection, and the cells were incubated for another 24 h before subsequent analyses.
(§3) Human ORS and DP cells or skin tissue were lysed (RIPA lysis buffer; #20‐188; Merck Millipore). […] Antibody‐antigen complexes detected by enhanced chemiluminescent substrate (Thermo Fisher) were captured and quantified by Amersham imager 680 systems (GE Healthcare).

[3] = system: AMPK phosphorylation in DP cells; assay: Western blot p-AMPK, DP cells; format: cell-based, human; settings: P5 0 - 50 μM, APN 2.5 μg/ml
Source text: as §2
as §3, with “Millipore). The obtained protein was then separated by 8% SDS–PAGE and transferred to a polyvinylidene fluoride membrane (Amersham). The protein transferred membranes were incubated overnight with the specific antibodies.” for “Millipore).”

PDGFA mRNA = assay: qRT-PCR growth factor gene expression in DP cells, PDGFA; format: cell-based, human; settings: for mRNA_PDGFA: DP cells
Source text: as §1
Total RNA was isolated from P5‐treated DP cells using RNAiso Plus (#9109; TaKaRa). We used the total RNA (1 µg) for cDNA synthesis using a RevertAid First Strand cDNA Synthesis Kit (Thermo Fisher) according to the manufacturer's instructions. The mRNA expression levels were quantified on a 7500 Real‐time PCR System (Thermo Fisher) using TB Green Premix Ex Taq (TaKaRa Bio): human IGF‐1, VEGF, HGF, PDGFA, FGF7, and glyceraldehyde 3‐phosphate dehydrogenase (GAPDH) (Appendix Table S2). The relative expression levels of each gene were determined by the 2^‐ΔΔCT method.

[4] = P5 5μM, relative to Control = 1, replicate 1
[5] = P5 5μM, relative to Control = 1, replicate 2
[6] = P5 5μM, relative to Control = 1, replicate 3
[7] = P5 25μM, relative to Control = 1, replicate 1
[8] = P5 25μM, relative to Control = 1, replicate 2
[9] = P5 25μM, relative to Control = 1, replicate 3

In the case of “GLYYF [P5, GST-fused (GST-P5) in pulldown assays]”, the “Numbers of Ki-67-positive cells normalized to DAPI-stained cells” value ([1]; P5 5μM) was 0.25 and 0.29 and 0.26 and 0.24 and 0.3 and 0.22 and 0.21, the “Numbers of Ki-67-positive cells normalized to DAPI-stained cells” value ([1]; P5 25μM) was 0.29 and 0.28 and 0.31 and 0.37 and 0.42 and 0.41 and 0.43 and 0.33 and the “Ki-67 in matrix cells of HF bulbs” value ([1]; ex vivo cultured human HFs, vs vehicle) was “increased significantly”. The protein_PDGFA (PDGFA protein; [4]) was 2.032, the protein_PDGFA (PDGFA protein; [5]) was 1.0925 and the protein_PDGFA (PDGFA protein; [6]) was 1.228. The protein_PDGFA (PDGFA protein; [7]) was 3.073, the protein_PDGFA (PDGFA protein; [8]) was 1.25 and the protein_PDGFA (PDGFA protein; [9]) was 1.481. The “PDGFA protein expression level” value (PDGFA protein; P5-treated DP cells, 48 h medium, n = 3) was “elevated”, the “p-AMPK intensity after AdipoR1 siRNA transfection, ORS cells” value [2] was “intensity was reduced” and the “Phosphorylation of AMPK, DP cells” value [3] was “concentration‐dependent phosphorylation of AMPK”. It also gave a mRNA_PDGFA (PDGFA mRNA; [4]) of 1.237, a mRNA_PDGFA (PDGFA mRNA; [5]) of 1.013 and a mRNA_PDGFA (PDGFA mRNA; [6]) of 1.221. It also gave a mRNA_PDGFA (PDGFA mRNA; P5 5μM, relative to Control = 1, replicate 4) of 1.252, a mRNA_PDGFA (PDGFA mRNA; [7]) of 1.5777 and a mRNA_PDGFA (PDGFA mRNA; [8]) of 1.8805. For the same substance, the mRNA_PDGFA (PDGFA mRNA; [9]) was 1.22, the mRNA_PDGFA (PDGFA mRNA; P5 25μM, relative to Control = 1, replicate 4) was 1.95 and the “PDGFA mRNA expression” value (PDGFA mRNA; P5-treated DP cells, n = 4) was “significantly increased”.
